# Where two headings read alike, the source gives them in different places.
# Legend:
# [1] = target: T1, Protein tyrosine phosphatase 1B (PTP1B) (Homo sapiens, UniProt P18031); experiment: PTP1B inhibitory kinetics (Lineweaver-Burk, Dixon and secondary plots); assay type: biochemical; conditions: for Type of inhibition: Lineweaver-Burk plots, substrate 0.437-1.75 mM pNPP
# T1 sequence (P18031 1-435): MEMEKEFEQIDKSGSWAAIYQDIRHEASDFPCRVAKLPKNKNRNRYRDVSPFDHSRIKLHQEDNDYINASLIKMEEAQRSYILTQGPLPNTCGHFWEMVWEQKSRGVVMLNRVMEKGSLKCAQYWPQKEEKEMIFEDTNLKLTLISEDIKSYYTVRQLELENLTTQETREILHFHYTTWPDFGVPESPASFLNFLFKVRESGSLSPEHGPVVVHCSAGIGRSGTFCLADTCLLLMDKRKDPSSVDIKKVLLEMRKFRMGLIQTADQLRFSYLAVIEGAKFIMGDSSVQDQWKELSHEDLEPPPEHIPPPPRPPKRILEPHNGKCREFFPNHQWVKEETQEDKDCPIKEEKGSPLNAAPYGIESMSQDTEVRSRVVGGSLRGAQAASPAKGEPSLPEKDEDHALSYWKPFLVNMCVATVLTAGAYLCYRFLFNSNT
# Method: (§1) Protein tyrosine phosphatase 1B inhibitory assay was performed with slight modification to the previously reported method (Song et al., [2017]). Tris–HCl buffer (25 mM, pH 7.5) which contained 1 mM (ethylenediaminetetraacetic acid) EDTA, 1 mM dithiothreitol (DTT), and 2 mM β-mercaptoethanol was used as buffer solution, whereas p-nitrophenyl phosphate (pNPP), a substrate of PTP1B was utilized for enzyme activity measurement. Enzyme assay was started by mixing 10 μL of test compounds with 130 μL of Tris-HCl buffer solution in 96-well plate, then 20 μL of enzyme (EC 3.1.3.48, 1μg/mL), and finally 40 μL of substrate (4 mM pNPP) was added at 37°C for 10 min. During the substrate hydrolysis, pNPP was de-phosphorylated, giving product pNP, which was detected by Spectra Max M3 Multi-Mode Microplate reader (Molecular devices, USA) at a wavelength of 405 nm for 30 min. […] Kinetic parameters were determined by Line weaver-Burk and Dixon plots. Sigma Plot (SPCC Inc., Chicago, IL, USA) was utilized for data setting and calculation.
# In order to study detailed kinetics of PTP1B, Michaelis-Menten equation (4) is applied, who's reciprocal is taken which transform to a new equation, Line weaver-Burk equation (5). Using this equation Line weaver-Burk plots were constructed, which were applied for the analysis of inhibitory kinetics of test compounds. Different inhibitor concentrations accompanied with varying substrate concentrations were used for determination of enzymes steady-state rates, subsequently kinetic parameters related to PTP1B inhibition were also determined. The values of inhibitory constants KI and KIS, when free enzyme binds with inhibitor (KI) or enzyme-substrate-complex interact with inhibitor (KIS) were obtained from secondary plots of the slopes and vertical intercept (1/V^appmax) vs. inhibitors concentration. The representative Equations (1–3) were used to acquire KI and KIS values (Chiari et al., [2011]).
# For inhibition parameters, an assay was performed having different substrate concentrations (0.437–1.75 mM), and several dilutions of tested compounds.
# The effects of different concentrations of the bioactive active compounds on the hydrolysis of p-nitrophenyl phosphate by PTP1B were studied. We assayed different concentrations (3.75, 7.5, 15, 30, 60, and 120 μM) of inhibitors (1-9) with the given enzyme and substrate. As a result, we observed a gradual decrease in enzyme activity (% activity) with increasing inhibitors concentrations as shown in Figure 2A. […] Plots of residual enzyme activity vs. enzyme concentration at different concentrations (0, 6.7, 13.5, and 27 μM) of compound 4 gave a family of lines which intersected on x-axis at 0 intercept. […] In order to explore the mechanistic behavior and kinetic features of the tested compounds, detailed kinetic study was performed. For this purpose the target enzyme was assayed in different concentrations of substrate (0.437, 0.875, 1.75 mM), in the presence of several dilutions of the respective compound, been graphically presented in double reciprocal plots (Linweaver-Burk and Dixon plots). Representatively, here we have explained compound 4 in detail, the Lineweaver-Burk plots of (4) produced a family of straight lines which intersected on the left side of y-axis and above the x-axis as shown in Figure 3A. The inhibitory constants (KI and KIS) were obtained by plotting the slopes and intercepts vs. different concentrations of compound 4 (Figure 3A, insets). […] In kinetic plots the abscissa [I] is the concentration of compound, where the coordinate1/V represents reciprocal of enzyme activity.
# [2] = target: T1, Protein tyrosine phosphatase 1B (PTP1B); experiment: PTP1B inhibitory assay (hydrolysis of p-nitrophenyl phosphate, 405 nm); assay type: biochemical; conditions: for IC50: pNPP substrate, 37°C, experiments repeated three times
# Method: as §1
# [3] = from Dixon plots, read-out: Ki (inhibition constant)
Compound,Type of inhibition [1],"Ki [1, 3]","Reversibility of inhibition ([1]; residual enzyme activity vs. enzyme concentration at 0, 6.7, 13.5, 27 μM inhibitor)","KIS (inhibitor binding to enzyme-substrate complex) ([1]; secondary plot of intercepts vs. inhibitor concentration, Equation 3)","Ki ([1]; secondary plot of slopes vs. inhibitor concentration, Equation 2, read-out: KI (inhibitor binding to free enzyme))",fold more potency than mother skeleton 1 ([2]; IC50 comparison with compound 1),fold more potency than mother skeleton 2 ([2]; IC50 comparison with compound 2),IC50 [2]
"COc1c(O)cc2oc(-c3ccc(O)cc3)c(OC)c(=O)c2c1O [Compound 3, viscosine]",Mixed,6.9 µM,,,,,,18.7 ± 0.6 µM
"C=C(C)C(O)Cc1cc(-c2oc3cc(O)c(OC)c(O)c3c(=O)c2OC)ccc1OC (centres unmarked) [Compound 5, 5,7-dihydroxy-3′-(2-hydroxy-3-methylbutenyl)-3,6,4′-trimethoxy-flavone]",Mixed,10.1 µM,,,,,,28.4 ± 0.9 µM
"CC1OC(OCC2OC(Oc3c(-c4ccc(O)cc4)oc4cc(O)cc(O)c4c3=O)C(O)C(O)C2O)C(O)C(O)C1O (centres unmarked) [Compound 8, Kaempferol 3-O-rutinoside]",Non-competitive,13 µM,,,,,,20.5 ± 0.8 µM
COc1ccc(-c2oc3cc(O)c(OC)c(O)c3c(=O)c2OC)cc1CCC(C)CO (centres unmarked) [Compound 6],Mixed,22.8 µM,,,,,,56 ± 0.3 µM

# Further lines, results first:
Type of inhibition [1],"Ki [1, 3]","Reversibility of inhibition ([1]; residual enzyme activity vs. enzyme concentration at 0, 6.7, 13.5, 27 μM inhibitor)","KIS (inhibitor binding to enzyme-substrate complex) ([1]; secondary plot of intercepts vs. inhibitor concentration, Equation 3)","Ki ([1]; secondary plot of slopes vs. inhibitor concentration, Equation 2, read-out: KI (inhibitor binding to free enzyme))",fold more potency than mother skeleton 1 ([2]; IC50 comparison with compound 1),fold more potency than mother skeleton 2 ([2]; IC50 comparison with compound 2),IC50 [2],Compound
mixed type I,4.6 µM,reversible,26.4 ± 0.4 µM,4.1 ± 0.2 µM,6 fold,2.5 fold,13.5 ± 0.3 µM,"COc1ccc(-c2oc3cc(O)c(OC)c(O)c3c(=O)c2OC)cc1CC=C(C)C [Compound 4, 5,7-dihydroxy-3,6-dimethoxy-2-(4-methoxy-3-(3-methylbut-2-enyl)phenyl)-4H-chromen-4-one]"
Mixed,14.3 µM,,,,,,41.8 ± 0.5 µM,"COc1c(O)cc2oc(-c3ccc(O)c(CCC(C)CO)c3)c(OC)c(=O)c2c1O (centres unmarked) [Compound 7, 5,7,4′-trihydroxy-3′-(3-hydroxymethylbutyl)-3,6-dimethoxyflavone]"
Mixed,27.3 µM,,,,,,57.9 ± 0.6 µM,"COc1cc2oc(-c3ccc(O)cc3)c(OC)c(=O)c2c(O)c1OC [Compound 1, penduletin]"
Non-competitive,26.4 µM,,,,,,42.9 ± 0.4 µM,"COc1cc(-c2oc3cc(O)cc(O)c3c(=O)c2OC2OC(COC3OC(C)C(O)C(O)C3O)C(O)C(O)C2O)ccc1O (centres unmarked) [Compound 9, Isorhamnetin3-O-robinobioside]"

# From paper PMC5839231, “Isolation and Characterization of Protein Tyrosine Phosphatase 1B (PTP1B) Inhibitory Polyphenolic Compounds From Dodonaea viscosa and Their Kinetic Analysis” (Frontiers in Chemistry, 2018)
